Assays:
ATP9A_C31 = molecular target: T1, ATP9A_C31 (Homo sapiens, UniProt O75110); test: IA-DTB cysteine engagement; assay type: binding; conditions: 22Rv1 cells, 20 μM probe, 1 h, relative to DMSO
T1 construct: endogenous in cells; host or cells: 22Rv1
T1 sequence (O75110 1-1047): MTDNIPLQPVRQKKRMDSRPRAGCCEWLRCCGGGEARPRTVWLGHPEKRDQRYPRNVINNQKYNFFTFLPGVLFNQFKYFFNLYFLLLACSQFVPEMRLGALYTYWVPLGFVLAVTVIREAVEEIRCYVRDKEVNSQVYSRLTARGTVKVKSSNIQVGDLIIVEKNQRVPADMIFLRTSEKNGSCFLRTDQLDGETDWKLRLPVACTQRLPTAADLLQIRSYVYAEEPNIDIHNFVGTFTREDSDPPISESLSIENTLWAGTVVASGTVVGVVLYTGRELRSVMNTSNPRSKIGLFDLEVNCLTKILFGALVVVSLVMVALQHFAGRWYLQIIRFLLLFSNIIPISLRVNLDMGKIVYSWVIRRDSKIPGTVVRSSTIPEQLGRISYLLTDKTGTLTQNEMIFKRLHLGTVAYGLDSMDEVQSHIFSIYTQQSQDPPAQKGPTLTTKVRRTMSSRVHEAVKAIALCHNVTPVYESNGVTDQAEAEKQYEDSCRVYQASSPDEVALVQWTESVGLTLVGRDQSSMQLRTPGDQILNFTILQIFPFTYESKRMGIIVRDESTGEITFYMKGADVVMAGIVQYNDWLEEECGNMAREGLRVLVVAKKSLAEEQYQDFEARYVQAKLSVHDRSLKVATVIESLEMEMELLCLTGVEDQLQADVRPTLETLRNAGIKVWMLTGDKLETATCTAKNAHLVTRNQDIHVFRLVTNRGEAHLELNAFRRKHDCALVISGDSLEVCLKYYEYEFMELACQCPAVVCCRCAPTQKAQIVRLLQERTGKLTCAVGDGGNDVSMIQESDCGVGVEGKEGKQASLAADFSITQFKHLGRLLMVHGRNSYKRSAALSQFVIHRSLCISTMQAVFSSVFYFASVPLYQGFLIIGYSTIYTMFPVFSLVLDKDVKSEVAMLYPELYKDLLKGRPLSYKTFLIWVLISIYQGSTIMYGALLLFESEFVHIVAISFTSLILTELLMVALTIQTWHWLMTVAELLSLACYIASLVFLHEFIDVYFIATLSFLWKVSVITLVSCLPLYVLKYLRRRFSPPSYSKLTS
Method in brief: (§1)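 Probe-exposed cells were lysed, IA-DTB-labeled, trypsinized and streptavidin-enriched. Multiplexed TMT quantitation gave engagement ratios versus DMSO, with non-tryptic peptides excluded and intensities normalized to median summed signal.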

NT5DC1_C119 = molecular target: T2, NT5DC1_C119 (Homo sapiens, UniProt Q5TFE4); test: IA-DTB cysteine engagement; assay type: binding; conditions: 22Rv1 cells, 20 μM probe, 1 h, relative to DMSO
T2 construct: endogenous in cells; host or cells: 22Rv1
T2 sequence (Q5TFE4 1-455): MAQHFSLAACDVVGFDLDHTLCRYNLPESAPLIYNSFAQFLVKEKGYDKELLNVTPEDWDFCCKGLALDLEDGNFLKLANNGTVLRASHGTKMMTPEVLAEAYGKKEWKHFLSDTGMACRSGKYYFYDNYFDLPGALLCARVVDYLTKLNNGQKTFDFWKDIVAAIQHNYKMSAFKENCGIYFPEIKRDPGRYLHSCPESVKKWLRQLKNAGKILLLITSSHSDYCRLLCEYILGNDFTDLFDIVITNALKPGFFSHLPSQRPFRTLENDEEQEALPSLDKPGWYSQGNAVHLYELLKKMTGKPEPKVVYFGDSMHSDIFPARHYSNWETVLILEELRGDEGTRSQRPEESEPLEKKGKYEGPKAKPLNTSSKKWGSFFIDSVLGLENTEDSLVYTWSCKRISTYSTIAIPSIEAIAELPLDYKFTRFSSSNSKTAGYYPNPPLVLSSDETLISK
Method in brief: as §1

| Structure (SMILES) | % engagement ATP9A_C31 (ATP9A_C31) | % engagement NT5DC1_C119 (NT5DC1_C119) |
| --- | --- | --- |
| C=CC(=O)N1C[C@H](c2ccc(Br)cc2)[C@H]1C(=O)Nc1cccc2cccnc12 [MY-3A, (2S,3S)-1-acryloyl-3-(4-bromophenyl)-N-(quinolin-8-yl)azetidine-2-carboxamide] | 73% | 93.5% |
| C=CC(=O)N1C[C@H](c2ccc(Br)cc2)[C@@H]1C(=O)Nc1cccc2cccnc12 [MY-1B, (2R,3S)-1-acryloyl-3-(4-bromophenyl)-N-(quinolin-8-yl)azetidine-2-carboxamide] | 79.5% | 63.25% |
| C=CC(=O)N1C[C@H](c2ccc(Br)cc2)[C@H]1C(=O)Nc1cccc2cccnc12 [MY-3B, (2S,3S)-1-acryloyl-3-(4-bromophenyl)-N-(quinolin-8-yl)azetidine-2-carboxamide] | 86.5% | 79.5% |
| C=CC(=O)N1C[C@@H](c2ccc(Br)cc2)[C@H]1C(=O)Nc1cccc2cccnc12 [MY-1A, (2S,3R)-1-acryloyl-3-(4-bromophenyl)-N-(quinolin-8-yl)azetidine-2-carboxamide] | 84.5% | 49% |

Source: patent US20250034216A1, “STEREOSELECTIVE COVALENT LIGANDS FOR ONCOGENIC AND IMMUNOLOGICAL PROTEINS” (The Scripps Research Institute, priority 2021, published 2025)
